Experimental data taken from patent publication US10647679B2, “N-methyl-D-aspartate receptor (NMDAR) potentiators, pharmaceutical compositions, and uses related thereto” (Emory University, priority 2015, dated 2020).
Read-outs that look alike come from different tables or passages of the source.

Assays:
Format in all cases: cell-based
[1] = molecular target: T1, recombinant rat GluN1/GluN2B (Rattus norvegicus, UniProt Q00960); test: Two-electrode voltage-clamp (TEVC) recordings in Xenopus laevis oocytes, GluN1/GluN2B; settings: for I30 μM/Icontrol (mean ± SEM, %) GluN2B: 30 μM compound, Tables 5-7
T1 construct: expressed in transfected cells; host or cells: Xenopus laevis oocytes (Ecocyte) injected with in vitro transcribed cRNA
T1 sequence (Q00960 27-1482, other chains not shown): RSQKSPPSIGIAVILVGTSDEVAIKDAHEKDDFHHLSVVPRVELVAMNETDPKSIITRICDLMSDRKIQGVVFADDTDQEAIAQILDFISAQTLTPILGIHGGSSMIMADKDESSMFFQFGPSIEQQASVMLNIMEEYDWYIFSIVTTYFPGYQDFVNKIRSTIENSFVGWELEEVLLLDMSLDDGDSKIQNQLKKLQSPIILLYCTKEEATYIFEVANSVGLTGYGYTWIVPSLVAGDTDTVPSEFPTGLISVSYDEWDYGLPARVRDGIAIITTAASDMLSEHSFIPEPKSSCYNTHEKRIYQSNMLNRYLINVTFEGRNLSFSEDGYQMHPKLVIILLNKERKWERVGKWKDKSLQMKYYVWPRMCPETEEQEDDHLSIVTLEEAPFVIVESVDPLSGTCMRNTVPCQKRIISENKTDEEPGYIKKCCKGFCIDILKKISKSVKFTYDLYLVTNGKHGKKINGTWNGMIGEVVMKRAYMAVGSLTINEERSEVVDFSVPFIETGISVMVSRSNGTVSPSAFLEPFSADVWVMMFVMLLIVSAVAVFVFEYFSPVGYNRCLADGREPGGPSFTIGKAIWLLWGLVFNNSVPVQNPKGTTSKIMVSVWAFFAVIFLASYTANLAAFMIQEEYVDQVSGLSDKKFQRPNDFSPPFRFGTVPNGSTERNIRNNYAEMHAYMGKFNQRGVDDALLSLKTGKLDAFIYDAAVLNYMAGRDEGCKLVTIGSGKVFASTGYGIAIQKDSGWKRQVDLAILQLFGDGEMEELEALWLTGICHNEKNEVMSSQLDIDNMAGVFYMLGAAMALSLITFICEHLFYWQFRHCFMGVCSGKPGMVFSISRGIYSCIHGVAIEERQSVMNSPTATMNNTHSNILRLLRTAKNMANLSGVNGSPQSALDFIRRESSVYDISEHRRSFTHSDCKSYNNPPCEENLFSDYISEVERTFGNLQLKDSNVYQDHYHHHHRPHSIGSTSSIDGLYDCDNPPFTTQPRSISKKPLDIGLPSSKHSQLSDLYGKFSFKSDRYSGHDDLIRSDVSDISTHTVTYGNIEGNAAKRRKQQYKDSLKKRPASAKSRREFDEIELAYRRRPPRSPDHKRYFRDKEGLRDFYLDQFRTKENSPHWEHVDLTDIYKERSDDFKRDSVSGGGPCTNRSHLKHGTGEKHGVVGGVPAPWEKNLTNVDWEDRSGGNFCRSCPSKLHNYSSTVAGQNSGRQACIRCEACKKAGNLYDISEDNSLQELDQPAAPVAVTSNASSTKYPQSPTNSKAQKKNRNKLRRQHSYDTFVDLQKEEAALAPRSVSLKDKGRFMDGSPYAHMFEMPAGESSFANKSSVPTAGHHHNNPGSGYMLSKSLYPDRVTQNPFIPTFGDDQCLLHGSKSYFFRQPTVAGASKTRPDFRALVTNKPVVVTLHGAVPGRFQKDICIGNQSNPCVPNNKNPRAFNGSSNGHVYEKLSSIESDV
Experimental: (§1) Data are from between 3-26 oocytes from 2-5 frogs for each compound and receptor tested.
(§2) Two-electrode voltage-clamp recordings were performed in Xenopus laevis oocytes (Ecocyte) expressing recombinant rat GluN1/GluN2A, GluN1/GluN2B, GluN1/GluN2C, GluN1/GluN2D. cRNA was transcribed in vitro (Ambion), diluted with nuclease free water, and injected at a ratio of 1:2 GluN1:GluN2 (5-10 ng total cRNA). The oocytes were kept in Barth's solution comprised of (in mM) 88 NaCl, 5 Tris-HCl, 2.4 NaHCO3, 1 KCl, 0.84 MgSO4, 0.41 CaCl2, and 0.33 Ca(NO3)2 at pH 7.4 at 15-17° C. for two to five days before experiments. Oocytes were placed into a perfusion chamber and continually washed with recording solution containing (in mM) 90 NaCl, 1.0 KCl, 0.5 BaCl2, 0.005 EDTA, and 10 HEPES at pH 7.4 (23° C.). Voltage clamp recordings were conducted at a holding potential of −40 mV. All compounds were made as 20 mM stock solutions in DMSO and dissolved to reach the final concentration in recording solution. Final DMSO content was 0.05-0.5% (vol/vol). Some oocytes expressing GluN1/GluN2A were pretreated with […] BAPTA-AM for 10 minutes or injected with […] of 2 mM K-BAPTA to prevent gradual run-up of the current response.

[2] = molecular target: T2, recombinant rat GluN1/GluN2C (Rattus norvegicus, UniProt Q00961); test: Two-electrode voltage-clamp (TEVC) recordings in Xenopus laevis oocytes, GluN1/GluN2C; settings: for I30 μM/Icontrol (mean ± SEM, %) GluN2C: 30 μM compound, Tables 5-7
T2 construct: expressed in transfected cells; host or cells: Xenopus laevis oocytes (Ecocyte) injected with in vitro transcribed cRNA
T2 sequence (Q00961 20-1237, other chains not shown): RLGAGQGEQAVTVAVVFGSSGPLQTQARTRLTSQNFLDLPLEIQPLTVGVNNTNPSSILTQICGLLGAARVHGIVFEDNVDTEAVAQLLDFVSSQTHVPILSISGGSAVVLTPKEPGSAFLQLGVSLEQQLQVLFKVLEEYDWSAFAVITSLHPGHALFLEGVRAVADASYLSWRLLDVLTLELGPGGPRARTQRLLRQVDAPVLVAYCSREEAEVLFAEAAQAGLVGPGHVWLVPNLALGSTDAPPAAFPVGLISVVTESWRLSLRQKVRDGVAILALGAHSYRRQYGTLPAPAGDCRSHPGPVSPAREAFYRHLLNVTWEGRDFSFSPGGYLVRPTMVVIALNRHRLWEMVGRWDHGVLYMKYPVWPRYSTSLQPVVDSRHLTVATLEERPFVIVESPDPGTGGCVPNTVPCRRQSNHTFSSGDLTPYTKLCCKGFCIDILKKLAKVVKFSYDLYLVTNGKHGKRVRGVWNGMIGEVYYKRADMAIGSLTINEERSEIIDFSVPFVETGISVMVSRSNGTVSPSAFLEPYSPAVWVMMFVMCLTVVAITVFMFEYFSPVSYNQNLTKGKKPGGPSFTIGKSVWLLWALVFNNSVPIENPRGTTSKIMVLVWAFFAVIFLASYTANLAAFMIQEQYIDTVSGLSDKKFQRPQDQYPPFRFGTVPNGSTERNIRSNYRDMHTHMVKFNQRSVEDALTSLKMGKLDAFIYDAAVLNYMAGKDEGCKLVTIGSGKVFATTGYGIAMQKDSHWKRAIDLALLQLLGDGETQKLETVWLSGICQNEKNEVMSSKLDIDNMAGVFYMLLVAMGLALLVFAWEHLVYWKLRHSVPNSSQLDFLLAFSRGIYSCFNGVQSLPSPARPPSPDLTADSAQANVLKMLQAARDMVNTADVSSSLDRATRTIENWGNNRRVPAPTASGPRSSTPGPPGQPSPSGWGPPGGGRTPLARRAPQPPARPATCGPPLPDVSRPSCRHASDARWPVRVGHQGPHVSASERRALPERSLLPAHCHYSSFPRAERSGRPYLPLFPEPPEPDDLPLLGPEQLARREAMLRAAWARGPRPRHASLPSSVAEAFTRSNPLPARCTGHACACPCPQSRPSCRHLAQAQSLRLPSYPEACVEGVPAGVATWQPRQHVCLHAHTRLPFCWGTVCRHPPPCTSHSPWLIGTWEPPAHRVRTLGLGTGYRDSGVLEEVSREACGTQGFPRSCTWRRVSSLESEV
Experimental: as §1, §2

[3] = molecular target: T3, recombinant rat GluN1/GluN2D (Rattus norvegicus, UniProt Q62645); test: Two-electrode voltage-clamp (TEVC) recordings in Xenopus laevis oocytes, GluN1/GluN2D; settings: for EC50: untitled tables after drawing 25 and drawing 36, read-out: EC50 (μM) GluN2D; for EC50 & Max Effect: 2D Max (%): Tables 11-13; for I30 μM/Icontrol (mean ± SEM, %) GluN2D: 30 μM compound, Tables 5-7
T3 construct: expressed in transfected cells; host or cells: Xenopus laevis oocytes (Ecocyte) injected with in vitro transcribed cRNA
T3 sequence (Q62645 28-1323, other chains not shown): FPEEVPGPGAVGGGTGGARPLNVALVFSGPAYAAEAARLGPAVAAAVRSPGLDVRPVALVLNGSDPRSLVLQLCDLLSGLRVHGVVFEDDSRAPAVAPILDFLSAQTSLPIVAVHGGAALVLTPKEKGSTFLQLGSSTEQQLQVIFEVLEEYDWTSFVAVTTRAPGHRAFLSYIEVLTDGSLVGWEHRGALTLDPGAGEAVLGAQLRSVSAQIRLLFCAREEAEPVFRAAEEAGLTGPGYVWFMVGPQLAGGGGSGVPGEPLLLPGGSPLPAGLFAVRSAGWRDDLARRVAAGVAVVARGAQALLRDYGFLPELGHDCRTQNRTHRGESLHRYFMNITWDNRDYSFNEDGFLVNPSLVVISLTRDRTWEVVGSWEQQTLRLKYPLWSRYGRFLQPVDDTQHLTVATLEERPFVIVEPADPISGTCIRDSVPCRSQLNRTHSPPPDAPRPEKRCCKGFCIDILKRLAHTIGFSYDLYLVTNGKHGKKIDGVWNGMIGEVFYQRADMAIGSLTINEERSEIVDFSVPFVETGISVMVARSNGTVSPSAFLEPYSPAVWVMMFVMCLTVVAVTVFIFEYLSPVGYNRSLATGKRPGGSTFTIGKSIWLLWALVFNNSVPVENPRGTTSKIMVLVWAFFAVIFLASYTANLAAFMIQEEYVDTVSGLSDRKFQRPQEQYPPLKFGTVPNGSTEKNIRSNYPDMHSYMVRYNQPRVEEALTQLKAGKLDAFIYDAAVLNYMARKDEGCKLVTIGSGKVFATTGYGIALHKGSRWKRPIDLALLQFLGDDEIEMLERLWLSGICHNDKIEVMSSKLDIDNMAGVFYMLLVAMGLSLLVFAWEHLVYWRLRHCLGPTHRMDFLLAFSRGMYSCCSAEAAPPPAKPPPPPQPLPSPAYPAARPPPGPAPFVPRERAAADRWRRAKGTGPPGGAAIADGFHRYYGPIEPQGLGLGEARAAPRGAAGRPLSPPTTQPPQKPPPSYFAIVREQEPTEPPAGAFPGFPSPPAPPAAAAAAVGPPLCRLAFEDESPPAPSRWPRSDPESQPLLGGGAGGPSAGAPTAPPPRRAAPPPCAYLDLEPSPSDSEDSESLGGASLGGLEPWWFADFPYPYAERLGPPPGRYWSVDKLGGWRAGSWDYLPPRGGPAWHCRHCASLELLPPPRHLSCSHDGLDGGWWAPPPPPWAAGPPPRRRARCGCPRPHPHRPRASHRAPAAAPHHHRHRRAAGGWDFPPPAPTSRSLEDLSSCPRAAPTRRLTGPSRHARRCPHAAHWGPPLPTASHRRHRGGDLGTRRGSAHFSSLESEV
Experimental: as §1, §2

[4] = molecular target: T4, recombinant rat GluN1/GluN2B (Rattus norvegicus, UniProt P35439+Q00960); test: Two-electrode voltage-clamp (TEVC) recordings in Xenopus laevis oocytes, GluN1/GluN2B
T4 construct: expressed in transfected cells; host or cells: Xenopus laevis oocytes (Ecocyte) injected with in vitro transcribed cRNA
Experimental: as §1, §2

[5] = molecular target: T5, recombinant rat GluN1/GluN2C (Rattus norvegicus, UniProt P35439+Q00961); test: Two-electrode voltage-clamp (TEVC) recordings in Xenopus laevis oocytes, GluN1/GluN2C; settings: Tables 11-13; read-out: EC50 & Max Effect: 2C Max (%)
T5 construct: expressed in transfected cells; host or cells: Xenopus laevis oocytes (Ecocyte) injected with in vitro transcribed cRNA
T5 sequence (Q00961 20-1237, other chains not shown): as the sequence (Q00961 20-1237, other chains not shown) above
Experimental: as §1, §2

[6] = untitled tables after drawing 25 and drawing 36, read-out: EC50 (μM) GluN2C

Structure (SMILES): COc1ccc(OCC2c3ccc(OC)cc3CCN2C(=O)C=CCl)cc1 (centres unmarked) [1180-251]
- GluN2B response % at 30 µM [1]: 96% at 30
- GluN2C response % at 30 µM [2]: 99% at 30
- GluN2D response % at 30 µM [3]: 88% at 30

Structure (SMILES): COc1ccc(OCC2c3ccc(OC)cc3CCN2C(=O)C=CC(F)(F)F)cc1 (centres unmarked) [1180-253]
- GluN2B response % at 30 µM [1]: 101% at 30
- EC50 [2, 6]: 7 µM
- EC50 [3]: 9 µM

Structure (SMILES): COc1ccc(OCC2c3ccc(OC)cc3CCN2C(=O)C=C(C)C(F)(F)F)cc1 (centres unmarked) [1180-255]
- GluN2B response % at 30 µM [1]: 99% at 30
- EC50 [2, 6]: 15 µM
- EC50 [3]: 23 µM

Structure (SMILES): CCOc1ccc(OCC2c3ccc(OC(C)C)cc3CCN2C(=O)C=C(C)C(F)(F)F)cc1 (centres unmarked) [1180-263]
- GluN2B response % at 30 µM [1]: 145% at 30
- GluN2C response % at 30 µM [2]: 165% at 30
- GluN2D response % at 30 µM [3]: 146% at 30

Structure (SMILES): CC(C)Oc1ccc(OCC2c3ccc(OC(C)C)cc3CCN2C(=O)c2cccc(Cl)c2)cc1 (centres unmarked) [1180-264]
- EC50 ([1]; untitled tables after drawing 25 and drawing 36, read-out: EC50 (μM) GluN2B): 4.6 µM
- GluN2C response % at 30 µM [2]: 127% at
- GluN2D response % at 30 µM [3]: 101% at

Structure (SMILES): COc1ccc(OCC2c3cc(O)c(OC)cc3CCN2C(=O)C=CC(F)(F)F)cc1 (centres unmarked) [1180-328]
- GluN2B response % at 30 µM [1]: 100 at 30%
- GluN2C response % at 30 µM [2]: 109 at 30%
- GluN2D response % at 30 µM [3]: 120 at 30%

Structure (SMILES): COc1ccc(OCC2c3cc(OC(=O)c4cccc(Cl)c4)c(OC)cc3CCN2C(=O)C=CC(F)(F)F)cc1 (centres unmarked) [1180-330]
- GluN2B response % at 30 µM [1]: 95 at 30%
- GluN2C response % at 30 µM [2]: 102 at 30%
- GluN2D response % at 30 µM [3]: 96 at 30%

Structure (SMILES): COc1ccc(OCC2c3cc(OC)c(OC)cc3CCN2C(=O)c2cccc(Cl)c2)cc1 (centres unmarked) [1390 (CIQ), reference compound]
- EC50 & Max Effect: 2C Max (%) [2]: 215%
- EC50 ([2]; read-out: EC50 & Max Effect: 2C): 2.9 µM
- EC50 & Max Effect: 2D Max (%) [3]: 205%

Structure (SMILES): CCOc1ccc(OC[C@H]2c3ccc(OC(C)C)cc3CCN2C(=O)c2cccc(F)c2)cc1 [(R)-(+)-1180-87]
- I30 μM/Icontrol (mean ± SEM, %) GluN2B [1]: 103%
- I30 μM/Icontrol (mean ± SEM, %) GluN2C [2]: 103%
- I30 μM/Icontrol (mean ± SEM, %) GluN2D [3]: 86%

Structure (SMILES): CCOc1ccc(OC[C@H]2c3ccc(OC(C)C)cc3CCN2C(=O)c2cccc(C(F)(F)F)c2)cc1 [(R)-(+)-1180-92]
- I30 μM/Icontrol (mean ± SEM, %) GluN2B [1]: 75%
- I30 μM/Icontrol (mean ± SEM, %) GluN2C [2]: 73%
- I30 μM/Icontrol (mean ± SEM, %) GluN2D [3]: 75%

Structure (SMILES): CCOc1ccc(OC[C@H]2c3ccc(OC(C)C)cc3CCN2C(=O)c2ccc(Cl)c(Cl)c2)cc1 [(R)-(+)-1180-103]
- I30 μM/Icontrol (mean ± SEM, %) GluN2B [1]: 83%
- I30 μM/Icontrol (mean ± SEM, %) GluN2C [2]: 92%
- I30 μM/Icontrol (mean ± SEM, %) GluN2D [3]: 93%

Structure (SMILES): CCOc1ccc(OC[C@H]2c3ccc(OC(C)C)cc3CCN2C(=S)c2cccc(F)c2)cc1 [(R)-(+)-1180-154]
- I30 μM/Icontrol (mean ± SEM, %) GluN2B [1]: 95%
- I30 μM/Icontrol (mean ± SEM, %) GluN2C [2]: 58%
- I30 μM/Icontrol (mean ± SEM, %) GluN2D [3]: 74%

Structure (SMILES): CCOc1ccc(OC[C@@H]2c3ccc(OC(C)C)cc3CCN2C(=O)c2ccc(Cl)c(Cl)c2)cc1 [(S)-(−)-1180-103]
- I30 μM/Icontrol (mean ± SEM, %) GluN2B [1]: 153%
- EC50 ([4]; fitted when potentiation at 30 μM exceeded 120%, Tables 3, 5-7, read-out: EC50 (max.) (μM %) GluN2B: fitted EC50): 0.94 µM
- Emax ([4]; percentage of the initial glutamate (100 μM) and glycine (30 μM) current, read-out: EC50 (max.) (μM %) GluN2B: fitted maximum response): 163%
- I30 μM/Icontrol (mean ± SEM, %) GluN2C [2]: 114%
- GluN2C potentiation at 3 μM ([2]; at 3 μM, footnote c of Table 7): exceeded 120%
- I30 μM/Icontrol (mean ± SEM, %) GluN2D [3]: 102%
- GluN2D potentiation at 3 μM ([3]; at 3 μM, footnote c of Table 7): exceeded 120%

Structure (SMILES): CCOc1ccc(OC[C@@H]2c3ccc(OC(C)C)cc3CCN2C(=S)c2cccc(C(F)(F)F)c2)cc1 [(S)-(−)-1180-168]
- I30 μM/Icontrol (mean ± SEM, %) GluN2B [1]: 95%
- I30 μM/Icontrol (mean ± SEM, %) GluN2C [2]: 87%
- I30 μM/Icontrol (mean ± SEM, %) GluN2D [3]: 87%

Structure (SMILES): COc1ccc(OC[C@H]2c3cc(OC)c(OC)cc3CCN2C(=O)c2cccc(Cl)c2)cc1 [R-1390]
- EC50 & Max Effect: 2C (μM) [2]: Inactive
- EC50 & Max Effect: 2D (μM) [3]: Inactive

Structure (SMILES): COc1ccc(OCC2c3cc(OC)c(OC)cc3CCN2C(=O)c2cccc(Br)c2)cc1 (centres unmarked) [compound 1391]
- Emax [5]: 145%
- EC50 & Max Effect: 2D Max (%) [3]: 188%
